Measured values from patent US8480995B2, “Use of sodium selenosulfate for supplementing selenium and enhancing the therapeutic efficacy of chemotherapy agents, and a rapid process for preparing sodium selenosulfate” (University of Science and Technology of China, priority 2007, dated 2013).

Key:
[1] = Se-supplementing effect in Se-deficient mice: Se level in serum, liver and kidney; assay type: in vivo; conditions: mean±SD; for Serum Se: relative to control 1.00 (control 0.07 μg/mL serum); for Liver Se: relative to control 1.00 (control 0.15 μg/g liver); for Kidney Se: relative to control 1.00 (control 0.44 μg/g kidney)
Procedure: (§1) It has been reported that high doses of sodium selenite can reduce the symptom of severely ill patient and enhance the therapeutic efficacy of chemotherapy agents for cancers. It remains unknown whether there are differences regarding the Se-supplementing effect between sodium selenosulfate and sodium selenite at pharmacologic doses. In this example, Se-deficient mice were intraperitoneally injected with sodium selenite and sodium selenosulfate at doses of 0.5 and 1 mg Se/kg for a week. The enzyme activity and selenium were measured to compare the Se-supplementing effect between the two selenium compounds.
(§2) Animals: Se-deficient male Kunming mice (body weight: 20-23 g) were purchased from the animal center of Anhui Medical University. Drugs Administration: 35 mice were randomly divided into 5 groups with 7 mice in each group. The mice in the control group were injected with normal saline, and those in other groups were injected respectively with different doses of sodium selenite and sodium selenosulfate (0.5 and 1 mg Se/kg) for 7 consecutive days. Biochemical parameters: 24 hours after the last Se administration, blood was sampled from ophthalmic veins to obtain serum by centrifugation, and then the Se form and glutathione peroxidase (GPx) activity therein were determined. Meanwhile, liver and kidney were excised and stored at −30° C., and a part of them were used to determine Se. A part of livers and kidneys were homogenized and centrifuged to obtain supernatant, and then GPx activity and glutathione S-transferase (GST) activity in livers were determined. Statistical analysis: Data were expressed as mean±SD. The differences between the groups were examined using ANOVA. A p value less than 0.05 was considered statistically significant.

[2] = tested on: glutathione peroxidase (GPx); test: Se-supplementing effect in Se-deficient mice: GPx activity in serum, liver and kidney; assay type: in vivo; conditions: mean±SD; for Liver GPx: relative to control 1.00 (control 88.5 unit/mg protein); for Kidney GPx: relative to control 1.00 (control 142.8 unit/mg protein); for Serum GPx: relative to control 1.00 (control 525.5 unit/mL serum)
Procedure: as §1, §2

[3] = tested on: glutathione S-transferase (GST); test: Se-supplementing effect in Se-deficient mice: GST activity in liver; assay type: in vivo; conditions: relative to control 1.00 (control 4071.4 unit/mg protein), mean±SD
Procedure: as §1, §2

[4] = tested on: Se-sufficient male Kunming mice; test: Toxicity to normal tissues in Se-sufficient mice, i.p. once daily for 14 days; assay type: in vivo; conditions: for mortality: FIG. 3; for hepatic tissue slices with hydropic or fatty degeneration / serum ALT and AST activity (hepatotoxicity): 2 mg Se/kg, 14 days; for hepatic tissue slices with hydropic or fatty degeneration: HE stain, selenite moderate (FIG. 5), selenosulfate slight (FIG. 6); for serum ALT and AST activity (hepatotoxicity): FIG. 4; for suppression of the growth of the mice (body weight): 2 and 3 mg Se/kg, same Se levels compared, FIG. 2
Procedure: Animals: Se-sufficient male Kunming mice (body weight: 23±1 g) were purchased from the Shanghai Laboratory Animal Center, Chinese Academy of Sciences. Drugs Administration: 50 mice were randomly divided into 5 groups with 10 mice in each group. The mice in the control group were injected intraperitoneally with normal saline, and the other groups were injected with sodium selenite (2 groups) and sodium selenosulfate (2 groups) respectively at 2 and 3 mg Se/kg once daily for 14 consecutive days. The mice in low dosage groups were sacrificed 24 hours after the last Se administration. Animal status: The body weight and dead status of the mice were recorded every day. Biochemical parameters: Blood was sampled from ophthalmic veins for determining serum ALT activity and AST activity. Pathology: Liver was excised for the determination. The slice was dyed by using HE. Statistical analysis: Data were expressed as mean±SD. The differences between the groups were examined using ANOVA. A p value less than 0.05 was considered statistically significant.

[5] = tested on: Human hepatoma cells (HepG2); test: Cell killing assay (MTT, 72 hours); assay type: cell-based; conditions: FIG. 7A
Procedure: (§3) Cell culture: Human hepatoma cells (HepG2) and human colorectal cancer cells (CaCo2) were cultivated at 37° C. under 5% CO2 by using EMEM cell culture media containing 10% Fetal Bovine serum. Cell killing assay: the tumor cells were added into a 96-well plate with a density of 5000 cells/well for 24 hours, and then the culture media were changed to those with different Se concentrations. At 72 hours, the cell numbers were determined by MTT protocol. Each treatment was conducted in 3 parallels, and the data were expressed by percent relative to cell numbers when no Se was added. Cell proliferation assay: HepG2 or CaCo2 cells were added into a 96-well plate with a density of 1000 cells/well for 24 hours, and then the culture media were changed to those with 12.5 μM Se. The day was defined as day 0. The cell numbers were determined by MTT protocol on day 0, 2, 4 and 6, respectively. Each treatment was conducted with 8 parallels, and the data were expressed with percent relative to the cell numbers on day 0. MTT assay: Each well was added with 20 μL MTT (5 mg/mL) 4 hours prior to the end of culture. After the culture was ended, the supernatant was discarded, and the formazan particles were dissolved in HCl-isopropanol (10 μL/well). The readings were recorded at 595 nm on a microplate reader.

[6] = tested on: Human hepatoma cells (HepG2); test: Cell proliferation assay (MTT, day 0-6); assay type: cell-based; conditions: 12.5 μM Se, day 0-6, MTT; FIG. 7B
Procedure: as §3

hepatoma H22 cell = test: Treatment of mice bearing H22 ascites with cisplatin with or without sodium selenosulfate; assay type: in vivo; conditions: for Survival time of dead mice: mean±SD
Procedure: Animals: Se-sufficient male Kunming mice (body weight: 20-23 g) were purchased from Shanghai Laboratory Animal Center, Chinese Academy of Sciences. Drugs Administration: 48 mice were divided randomly into 6 groups with 8 mice in each group. Each mouse was inoculated intraperitoneally with hepatoma H22 cell suspension (20×10^6 cells). The groups were classified into 3 cisplatin groups, 2 cisplatin plus Se-supplementing groups (the groups administrated with 8 and 10 mg/kg doses of cisplatin were treated with 0.6 and 0.75 mg Se/kg doses of sodium selenosulfate, respectively) and 1 control group in terms of the administration doses (5, 8 and 10 mg/kg) of cisplatin. The experiments were carried out with one week as a cycle. The experiments with cisplatin doses of 5 and 8 mg/kg were carried out for total 4 cycles, and those with cisplatin dose of 10 mg/kg were performed for total 3 cycles. From the first day of each cycle, the mice in cisplatin groups was intraperitoneally injected with the corresponding concentrations of cisplatin, and the mice in cisplatin plus Se-supplementing groups were injected intraperitoneally with the corresponding sodium selenosulfate doses of 0.6 and 0.75 mg Se/kg respectively 4 hours before the intraperitoneal injection of cisplatin. The treatment was performed for 5 consecutive days. The first cisplatin chemotherapy started at 48 hours after the inoculation of tumor cells. The animal status was recorded and the development of malignant ascites was observed. Statistical analysis: Data were expressed as mean±SD. The differences between the groups were examined using ANOVA. A p value less than 0.05 was considered statistically significant.

[7] = 2 mg Se/kg i.p. once daily 14 days
[8] = 3 mg Se/kg i.p. once daily 14 days
[9] = cisplatin 5 mg/kg i.p., 4 cycles
[10] = cisplatin 8 mg/kg i.p., 4 cycles
[11] = cisplatin 10 mg/kg i.p., 3 cycles

| Structure (SMILES) | Liver GPx ([2]; 0.5 mg/kg i.p. 7 days) | Kidney GPx ([2]; 0.5 mg/kg i.p. 7 days) | Serum GPx ([2]; 0.5 mg/kg i.p. 7 days) | Liver GPx ([2]; 1.0 mg/kg i.p. 7 days) | Kidney GPx ([2]; 1.0 mg/kg i.p. 7 days) | Serum GPx ([2]; 1.0 mg/kg i.p. 7 days) | Liver GST ([3]; 0.5 mg/kg i.p. 7 days) | Liver GST ([3]; 1.0 mg/kg i.p. 7 days) | mortality [4, 7] | hepatic tissue slices with hydropic or fatty degeneration [4] | serum ALT and AST activity (hepatotoxicity) [4] | mortality [4, 8] [%] | suppression of the growth of the mice (body weight) [4] | also measured |
| --- | --- | --- | --- | --- | --- | --- | --- | --- | --- | --- | --- | --- | --- | --- |
| O=S(=O)([O-])[Se-].[Na+].[Na+] [Sodium selenosulfate, sodium selenosulfate] | 18.8 ± 0.19 | 7.74 ± 0.19 | 3.10 ± 0.25 | 22.2 ± 0.16 | 9.09 ± 0.18 | 4.41 ± 0.24 | 1.47 ± 0.29 | 2.69 ± 0.23 | all the mice treated with sodium selenosulfate survived | 20% | such phenomenon was not found | 20 | could suppress the growth of the mice as compared with the control | Serum Se ([1]; 0.5 mg/kg i.p. 7 days): 5.69 ± 0.13; Liver Se ([1]; 0.5 mg/kg i.p. 7 days): 11.2 ± 0.09; Kidney Se ([1]; 0.5 mg/kg i.p. 7 days): 2.85 ± 0.10; Serum Se ([1]; 1.0 mg/kg i.p. 7 days): 5.24 ± 0.39; Liver Se ([1]; 1.0 mg/kg i.p. 7 days): 15.2 ± 0.09; Kidney Se ([1]; 1.0 mg/kg i.p. 7 days): 3.90 ± 0.14; killing effect on HepG2 cells [5]: dose-dependent profile on killing HepG2 cells at levels of 6-18 μM; suppression of proliferation of HepG2 cells [6]: fully suppressed the proliferation of HepG2 cells |
| O=[Se](O)O [Sodium selenite, sodium selenite] | 19.8 ± 0.08 | 8.74 ± 0.14 | 2.97 ± 0.37 | 22.2 ± 0.10 | 10.2 ± 0.14 | 4.18 ± 0.26 | 1.64 ± 0.23 | 2.44 ± 0.14 | 20% | up to 80% | made ALT and AST increased significantly | 90 | significantly stronger than that of sodium selenosulfate |  |
| N.N.[Cl][Pt][Cl] [Cisplatin, cisplatin] |  |  |  |  |  |  |  |  |  |  |  |  |  | suppression of the development of malignant ascites (hepatoma H22 cell; cisplatin 5 mg/kg): could not suppress the rapid development of malignant ascites; Cure rate (hepatoma H22 cell; [9]): 0%; Death rate (hepatoma H22 cell; [9]): 100%; Survival time of dead mice (hepatoma H22 cell; [9]): 20 ± 7 days; Cure rate (hepatoma H22 cell; [10]): 0%; Death rate (hepatoma H22 cell; [10]): 100%; Survival time of dead mice (hepatoma H22 cell; [10]): 31 ± 12 days; Cure rate (hepatoma H22 cell; [11]): 25%; Death rate (hepatoma H22 cell; [11]): 75%; Survival time of dead mice (hepatoma H22 cell; [11]): 21 ± 9 days; suppression of the development of malignant ascites (hepatoma H22 cell; cisplatin 8 and 10 mg/kg): could efficiently suppress the development of malignant ascites |
